Data as given in PubChem BioAssay (NCI).
Several values for one entry are separate records, joined by “and”; a condition that tells them apart may be missing. Equal values may be shown once.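 Growth conditions: 96-well plates. Treatment: test compound, 48 hours, 5 concentrations. Analysis: linear interpolation between bracketing concentrations; unreached endpoints set to highest concentration. GI50 is the concentration that inhibits growth by half. At the TGI there is no net growth.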

Experiments:
Assay in all cases: NCI anticancer screen, dose series, 48 h
LXFL 529 NSCLC = system: LXFL 529 NSCLC
DMS 114 small cell lung = system: DMS 114 small cell lung
NCI/ADR-RES ovarian = system: NCI/ADR-RES ovarian
MDA-MB-435 = system: MDA-MB-435
HOP-18 NSCLC = system: HOP-18 NSCLC
XF 498 CNS = system: XF 498 CNS
MDA-N = system: MDA-N
SNB-78 CNS = system: SNB-78 CNS

`COC(=O)C1=C(SC)SC2(C(=O)OC)C3C=C(C)C4C(N13)C42C(=O)OC` (centres undefined) gave a TGI (LXFL 529 NSCLC) of over 100 µM and a TGI (DMS 114 small cell lung) of over 100 µM.
`COc1cccc(-n2cnc3c(N/N=C/c4ccncc4)ncnc32)c1` showed a GI50 (NCI/ADR-RES ovarian) of over 25 µM, a TGI (NCI/ADR-RES ovarian) of over 25 µM and a GI50 (MDA-MB-435) of 12.4 µM. For the same molecule, the TGI (MDA-MB-435) was over 25 µM.
In the case of `NS(=O)(=O)OC[C@H]1O[C@@H](n2cnc3c(N[C@H]4CCc5ccccc54)ncnc32)[C@H](O)[C@@H]1O`, the GI50 (NCI/ADR-RES ovarian) is reported as 5.05 µM, the TGI (NCI/ADR-RES ovarian) is reported as over 100 µM and the GI50 (MDA-MB-435) is reported as 0.114 µM. It also gave a TGI (MDA-MB-435) of 0.351 µM.
For `COc1cc(C2C3=C(COC3=O)N(CCO)c3cc4c(cc32)OCCO4)cc(OC)c1O` (centres undefined), the GI50 (NCI/ADR-RES ovarian) was over 31.8 µM, the TGI (NCI/ADR-RES ovarian) was over 50 µM and the GI50 (MDA-MB-435) was 0.331 µM. For the same molecule, the TGI (MDA-MB-435) was 1.71 µM.
`O=C1/C(=C/c2ccc(F)cc2)CN(Cc2cn(CCNc3ccnc4cc(Cl)ccc34)nn2)C/C1=C\c1ccc(F)cc1` gave a GI50 (NCI/ADR-RES ovarian) of 2.76 µM, a TGI (NCI/ADR-RES ovarian) of 11.3 µM and a GI50 (MDA-MB-435) of 1.41 µM. The TGI (MDA-MB-435) was 2.73 µM.
In the case of `CC(C)=CCNc1ncnc2c1ncn2C1OC(COP(=O)(O)O)C(O)C1O` (centres undefined), the GI50 (NCI/ADR-RES ovarian) is reported as 5.85 µM, the TGI (NCI/ADR-RES ovarian) is reported as over 100 µM and the GI50 (MDA-MB-435) is reported as 6.68 µM. The TGI (MDA-MB-435) was over 100 µM.
Work on `COC(=O)C1=C(O)C(C(=O)OC)[C@@]2(O)[C@@H](C(=O)OC)C(c3ccccc3C(F)(F)F)C[C@@H]1[C@@H]2C(=O)OC` (some centres undefined) yielded a GI50 (NCI/ADR-RES ovarian) of 3.78 µM, a TGI (NCI/ADR-RES ovarian) of 16.8 µM and a GI50 (MDA-MB-435) of 2.06 µM. For the same molecule, the TGI (MDA-MB-435) was 4.53 µM.
`CCOc1cccc2cccnc12` showed a TGI (LXFL 529 NSCLC) of over 100 µM, a TGI (HOP-18 NSCLC) of over 100 µM and a TGI (DMS 114 small cell lung) of over 100 µM. The TGI (XF 498 CNS) was over 100 µM.
`COc1ccc(OC)c(-c2cc(-c3ccc(Cl)cc3)nn2-c2ccc(S(N)(=O)=O)cc2)c1` showed a GI50 (NCI/ADR-RES ovarian) of 6.54 µM, a TGI (NCI/ADR-RES ovarian) of 22.2 µM and a GI50 (MDA-MB-435) of 18.2 µM. For the same molecule, the TGI (MDA-MB-435) was 43.9 µM.
In the case of `OCCOCn1nc(-c2ccccc2)nc1-c1cnccn1`, the TGI (MDA-N) is reported as over 100 µM and the TGI (NCI/ADR-RES ovarian) is reported as over 100 µM.
`CC(=O)NC1=NC(=O)/C(=C/c2ccc(Cl)cc2Cl)N1C` gave a TGI (MDA-N) of over 100 µM, a TGI (NCI/ADR-RES ovarian) of over 100 µM and a TGI (MDA-MB-435) of over 100 µM.
`O=C(O)/C=C/C(=O)Nc1cccc2c1-c1ccccc1C2=O` was tested, and the TGI (MDA-N) was 12.1 µM, the TGI (NCI/ADR-RES ovarian) was over 92.1 µM and the TGI (MDA-MB-435) was 9.14 µM.
Molecule `COc1ncn(C2C=C(CO)C(O)C2O)c(=O)n1` (centres undefined) has a TGI (LXFL 529 NSCLC) of over 100 µM, a TGI (HOP-18 NSCLC) of over 100 µM and a TGI (SNB-78 CNS) of over 100 µM. The TGI (DMS 114 small cell lung) was over 100 µM.
Work on `CN1CCN(c2nc(NCCNc3ccnc4cc(Cl)ccc34)c3ccccc3n2)CC1` yielded a GI50 (NCI/ADR-RES ovarian) of 16 µM, a TGI (NCI/ADR-RES ovarian) of 37 µM and a GI50 (MDA-MB-435) of 1.85 µM. It also gave a TGI (MDA-MB-435) of 3.61 µM.
`N=C(N)c1ccc(-c2ccc(-c3ccco3)o2)cc1` was tested, and the GI50 (NCI/ADR-RES ovarian) was 10.1 µM, the TGI (NCI/ADR-RES ovarian) was 28.5 µM and the GI50 (MDA-MB-435) was 1.83 µM. The TGI (MDA-MB-435) was 4.03 µM.
`COc1cc(OC)cc(-c2n[nH]nc2-c2ccc3c(c2)OCO3)c1` was tested, and the GI50 (NCI/ADR-RES ovarian) was 0.0849 µM and the TGI (NCI/ADR-RES ovarian) was 24 µM.
`C=C1c2c(C)nn(-c3ccccc3)c2N(C)C23C[C@@H]1C1(C)c4c(C)nn(-c5ccccc5)c4N(C)C(C)(C[C@H]12)C3` (some centres undefined) gave a GI50 (NCI/ADR-RES ovarian) of 6.04 µM, a TGI (NCI/ADR-RES ovarian) of over 100 µM and a GI50 (MDA-MB-435) of 4.12 µM. It also gave a TGI (MDA-MB-435) of over 100 µM.
Work on `CC(CC(C)[C@H]1CCC2[C@H]3C(CC[C@@]21C)[C@@]1(C)CCC(O)C[C@H]1C[C@@H]3O)C(=O)O` (some centres undefined) yielded a TGI (MDA-N) of over 100 µM, a TGI (NCI/ADR-RES ovarian) of over 100 µM and a TGI (MDA-MB-435) of over 100 µM.
With `O=c1cc(N2CCOCC2)oc2c(-c3ccccc3)cccc12` the TGI (MDA-N) was 50.3 µM, the GI50 (NCI/ADR-RES ovarian) was 6.35 µM and the TGI (NCI/ADR-RES ovarian) was 85.2 µM and 24.3 µM. The GI50 (MDA-MB-435) was 4.23 µM and the TGI (MDA-MB-435) was 31.1 µM and 37.2 µM.
`Cn1c(=O)c2[nH]c(Nc3ccccc3)nc2n(C)c1=O` gave a TGI (MDA-N) of over 10 µM and a TGI (MDA-MB-435) of over 10 µM.
`S=c1sc2ccccc2n1CN1CCN(Cc2ccccc2)CC1` showed a TGI (NCI/ADR-RES ovarian) of over 100 µM and a TGI (MDA-MB-435) of over 100 µM.
`O=C(O)CSc1ccn(Cc2ccccc2)c1` was tested, and the TGI (MDA-N) was over 100 µM, the TGI (NCI/ADR-RES ovarian) was over 100 µM and the TGI (MDA-MB-435) was over 100 µM.
With `CCCCC#Cc1c(I)n(C2OC(CO[Si](C)(C)C(C)(C)C)C3OC(C)(C)OC32)c(=O)[nH]c1=O` (centres undefined) the GI50 (NCI/ADR-RES ovarian) was 18.1 µM, the TGI (NCI/ADR-RES ovarian) was 49.7 µM and the GI50 (MDA-MB-435) was 14.6 µM. It also gave a TGI (MDA-MB-435) of 29.8 µM.
For `COc1ccc(CNCCN2C(=O)c3ccc4c5c(ccc(c35)C2=O)C(=O)N(CCNCc2ccc(OC)cc2)C4=O)cc1`, the GI50 (NCI/ADR-RES ovarian) was 0.288 µM, the TGI (NCI/ADR-RES ovarian) was 1.21 µM and the GI50 (MDA-MB-435) was 0.189 µM. It also gave a TGI (MDA-MB-435) of 0.375 µM.
With `COc1ccccc1NC(=O)CC(=O)NNCC(=O)Nc1nc(-c2ccccc2)cs1` the TGI (LXFL 529 NSCLC) was over 100 µM, the TGI (HOP-18 NSCLC) was over 100 µM and the TGI (SNB-78 CNS) was over 100 µM. For the same molecule, the TGI (DMS 114 small cell lung) was over 100 µM.
Work on `CCCCCCCC(=O)SCC/C=C/[C@@H]1CC(=O)NCc2cccc(n2)CN(Cc2ccc(Cl)cc2)CC(=O)N[C@@H](C(C)C)C(=O)O1` yielded a GI50 (NCI/ADR-RES ovarian) of 11.4 µM, a TGI (NCI/ADR-RES ovarian) of over 100 µM and a GI50 (MDA-MB-435) of 6.06 µM. It also gave a TGI (MDA-MB-435) of over 100 µM.
Work on `O=C1CCc2cc([N+](=O)[O-])ccc2O1` yielded a TGI (MDA-N) of over 100 µM, a TGI (NCI/ADR-RES ovarian) of over 100 µM and a TGI (MDA-MB-435) of over 100 µM.
